# From patent US9790253B2, “OSW-1 analogs and conjugates, and uses thereof” (priority 2011, dated 2017)
# “Also recorded” adds a separate entry of the source. Where two headings read alike, the source gives them in different places. Where a SMILES comes first, the peptide text is derived from it. The star is where a group is joined. Cbz = O=C(OCc1ccccc1)*
# Assays:
# OSBP1-myc-his = molecular target: T1, OSBP1-myc-his (Homo sapiens, UniProt P22059); assay: [3H]-25-hydroxycholesterol charcoal-dextran binding assay with OSBP1-myc-his
# T1 construct: made in house; host or cells: HEK-293T (transient transfection; S100 lysate, not purified)
# T1 sequence (P22059 1-807): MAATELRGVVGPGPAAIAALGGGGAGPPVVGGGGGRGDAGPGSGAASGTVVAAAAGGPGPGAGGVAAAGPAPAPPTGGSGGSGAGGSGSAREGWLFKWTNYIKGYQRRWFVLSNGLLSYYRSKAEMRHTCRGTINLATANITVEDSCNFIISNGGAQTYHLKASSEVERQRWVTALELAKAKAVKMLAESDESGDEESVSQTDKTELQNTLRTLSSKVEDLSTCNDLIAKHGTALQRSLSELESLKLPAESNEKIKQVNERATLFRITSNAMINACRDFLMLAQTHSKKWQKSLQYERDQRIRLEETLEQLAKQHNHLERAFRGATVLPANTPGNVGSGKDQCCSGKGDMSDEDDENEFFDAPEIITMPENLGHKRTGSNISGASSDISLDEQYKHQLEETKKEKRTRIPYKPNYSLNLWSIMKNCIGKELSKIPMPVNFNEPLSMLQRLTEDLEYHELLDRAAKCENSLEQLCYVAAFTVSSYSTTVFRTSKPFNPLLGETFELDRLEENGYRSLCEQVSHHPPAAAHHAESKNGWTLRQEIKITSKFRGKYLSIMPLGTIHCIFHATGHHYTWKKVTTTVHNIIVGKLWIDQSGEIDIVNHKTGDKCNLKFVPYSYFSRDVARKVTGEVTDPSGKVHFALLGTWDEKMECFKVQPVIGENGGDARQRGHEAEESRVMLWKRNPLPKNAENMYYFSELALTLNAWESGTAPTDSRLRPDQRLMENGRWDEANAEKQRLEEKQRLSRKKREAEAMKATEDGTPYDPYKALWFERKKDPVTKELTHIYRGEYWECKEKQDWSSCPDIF
# Description: [^3H]-25-Hydroxycholesterol charcoal-dextran binding assay.
# (§1) Methods are described above in the General Methods section.
# [1] = test system: HCT-116 p21^+/+ (wt) cells; assay: Growth inhibition (cell viability assay) of HCT-116 p21+/+ cells; conditions: for GI50: Homo sapiens
# Experimental: (§2) Cell viability assay. Cells were plated into 96-well plates in 75 μL of media. After 24 h, a time-zero plate was produced by adding 25 μL of media and 20 μL of CellTiter-Blue® (Promega) to the wells, followed by incubation at 37° C. for 90 min. Fluorescence (544 nm excitation; 590 nm emission) was detected using a SPECTRAmax® Gemini XS to establish cell viability at time of dosing. Then, compounds were serially diluted in media and delivered to the cells as 4× solutions in 25 μL of media. At either 48 h or 72 h, CellTiter-Blue® was added and the fluorescence was recorded as described above.
# (§3) Tasdemir et al. (2002) J Nat Prod 65:210-4. GI50-values of the compounds were determined in HCT-116 p21^+/+ (wt) and p21^−/− cells after 48 h using a resazurin redox dye to measure cell viability.
# as §1
# HCT-116 p21^−/− cells = assay: cells; conditions: for GI50: Homo sapiens, HCT-116, 48 h, read-out: GI50 (nM) 48 h p21^−/−
# Experimental: as §2, §3, §1
# A549 cells = assay: cells; format: cell-based, human; conditions: for GI50: Homo sapiens, A549, 48 h, read-out: GI50 (nM) 48 h
# Description: Methods are essentially as described above in the General Methods section in connection with assays using HCT-116 cells.
# ORP4L-myc-his = molecular target: T2, ORP4L-myc-his (Homo sapiens, UniProt Q969R2); assay: [3H]-25-hydroxycholesterol charcoal-dextran binding assay with ORP4L-myc-his
# T2 sequence (Q969R2 1-916): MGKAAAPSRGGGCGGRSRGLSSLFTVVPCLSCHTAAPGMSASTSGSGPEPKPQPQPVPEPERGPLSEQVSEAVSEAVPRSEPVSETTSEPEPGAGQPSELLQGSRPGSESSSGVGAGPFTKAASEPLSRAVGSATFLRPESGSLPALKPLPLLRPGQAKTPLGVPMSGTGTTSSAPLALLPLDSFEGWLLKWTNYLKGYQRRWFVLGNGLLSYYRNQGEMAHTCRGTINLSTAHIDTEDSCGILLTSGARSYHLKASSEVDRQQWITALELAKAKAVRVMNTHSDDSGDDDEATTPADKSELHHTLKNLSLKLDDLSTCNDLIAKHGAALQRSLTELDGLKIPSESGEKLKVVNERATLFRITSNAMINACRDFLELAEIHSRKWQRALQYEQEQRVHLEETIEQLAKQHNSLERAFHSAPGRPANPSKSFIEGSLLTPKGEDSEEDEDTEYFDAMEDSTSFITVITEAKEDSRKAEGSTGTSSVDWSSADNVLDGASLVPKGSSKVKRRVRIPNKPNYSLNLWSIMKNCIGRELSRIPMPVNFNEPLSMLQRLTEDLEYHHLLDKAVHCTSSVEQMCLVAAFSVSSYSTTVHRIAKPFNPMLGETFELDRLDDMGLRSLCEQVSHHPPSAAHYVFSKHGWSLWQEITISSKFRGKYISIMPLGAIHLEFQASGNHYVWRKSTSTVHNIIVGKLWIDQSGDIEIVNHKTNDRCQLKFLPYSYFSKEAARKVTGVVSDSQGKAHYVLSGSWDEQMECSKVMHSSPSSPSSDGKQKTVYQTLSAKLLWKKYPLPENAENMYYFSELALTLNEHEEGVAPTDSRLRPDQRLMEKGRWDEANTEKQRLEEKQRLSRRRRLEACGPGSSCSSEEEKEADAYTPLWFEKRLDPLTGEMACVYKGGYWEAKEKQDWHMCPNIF
# Experimental: [^3H]-25-Hydroxycholesterol charcoal-dextran binding assay. […] These vectors were transfected into HEK-293T cells using Lipofectamine™2000 (Invitrogen), and 48 h after transfection, on-plate lysis of the transfected cells with the M-Per®/HALT™ with EDTA (ThermoScientific) reagent was performed, followed by ultracentrifugation at 100,000 g. The S100 lysate was diluted to 0.2 mg/mL, aliquoted and stored at −80° C. until use. The HEK-293T OSBP1-, ORP4L- or lacZ-myc-his lysate was incubated with [^3H]-25-hydroxycholesterol at 4° C. for 16 h in 96-well plates. After incubation, charcoal/dextran (C/D) was added to the wells for 30 min of shaking at RT, followed by centrifugation for 15 min at 1900 g to pellet the C/D. The C/D-cleared lysate was added to MicroScint™-20 (PerkinElmer) scintillation fluid, and the remaining protein-bound radiolabel was quantified using a TopCount™ scintillation counter. [^3H]-25-hydroxycholesterol binding curves and competition curves were repeated at least three times.
# Lysates were thawed on ice, with brief periods of hand warming. Both the ^3H-25-OHC direct binding assays and the ^3H-25-OHC competition binding assays were set up similarly, with a large stock of binding assay lysate being prepared, then 73.5 μL of the binding assay mixture dispensed using a multi-channel pipettor into “V”-shaped 96-well plates. For the ^3H-25-OHC direct binding assay, 1.5 μL of ^3H-25-OHC and ^3H-25-OHC/40×25-OHC added to the wells in dilutions in 100% ethanol. For the ^3H-25-OHC competition binding assays, ^3H-25-OHC was added to the large stock of binding assay lysate to a final concentration of 20 nM. This ^3H-25-OHC-containing binding lysate was then dispensed using a multi-channel pipettor into the 96-well plates. Then, 1.5 μL of a serial dilution of the inhibitors in either 100% ethanol (25-OHC) or DMSO (the ORPphilins) was added to each well.
# The binding lysate used in each well of the 96-well plate consisted of 60 μL of 0.2 mg/mL S100 lysate, 7.5 μL 20% PVA, and 5.6 μL 2M KCl. For ^3H-25-OHC binding curve experiments, 0.4 μL of buffer was then added (total volume per well: 73.5 μL). For the ^3H-25-OHC inhibition competition assays, 0.11 μL of 13.2 μM ^3H-25-OHC and 0.29 μL binding buffer was added for each well (total volume per well: 73.5 μL).
# Binding assays were incubated, standing, for 16 h at 4° C. Then 30 μL of the rt C/D solution was multichannel pipetted into new “V’ shaped 96-well plates, and 60 μL of the binding lysate mixture was then added. The plates were briefly, lightly vortexed (˜10 sec), 10 and then rocked at 250 rpm for 30 min at rt. The plates were then centrifuged at 1900 g for 15 min at 4° C. in Microplate Carriers (Sorvall cat. #75006449S) in a Sorvall Legend RT centrifuge. Carefully so as to not disturb the C/D pellet, 30 μL of the supernatant was transferred to 170 μL of Microscint-20 in the OptiPlates. The plates were sealed with the TopSealA-Films, and vigorously vortexed (max speed, >1 min). ^3H-25-OHC detection in the wells was then performed using a TopCount Scintillation detector, counting each well for 2 min. Data was graphed and analyzed using GraphPad PrismS, using non-linear regression to determine KD and K1 values.
# Binding experiments were performed at 4° C. for 16 h. Unbound sterol was removed using dextran-coated charcoal, and protein-bound sterol left in the supernatant was quantified by scintillation counting. Ki-values were determined as mean±s.d. from at least three independent experiments.
# [2] = molecular target: T3, OSBP1 protein levels in HCT-116 cells (Homo sapiens, UniProt P22059); assay: OSBP1 protein levels by western blotting; format: cell-based; conditions: for block of OSBP1 degradation by 1 and 2: co-administered with 1 and 2; for effect on OSBP1 levels, compound alone: concentration not given
# T3 construct: endogenous in cells; host or cells: HCT-116
# T3 sequence (P22059 1-807): T1 sequence (P22059 1-807)
# Experimental: A possible explanation for this observation was that treatment with 1 and 2 caused a decrease in OSBP1 levels. Treatment of HCT-116 cells with vehicle (DMSO) or 25-OHC (10 μM) had no effect on OSBP1 levels, as assessed by western blotting (FIG. 6A). However, treatment with 1 or 2 induced a dramatic, time-dependent reduction of OSBP1 levels (FIG. 6A). For example, 50 nM of 1 or 10 nM of 2 caused an approximately 75% reduction in OSBP1 protein levels at 24 h in HCT-116 cells (FIG. 6A), with a similar effect recorded in A549 cells. […] OSBP1 levels were determined using both an antibody recognizing the far N-terminus of OSBP1 (FIG. 6) and also an antibody recognizing the C-terminus of OSBP1.
# One possible explanation for the reduction in OSBP1 levels upon treatment with 1 and 2 was proteasome-dependent degradation. To determine whether degradation of OSBP1 was proteasome dependent, proteasome inhibitors MG-132 or lactacystin were co-administered with 1 and 2. […] Similar results were obtained in A549 cells.
# HCT-116 cells = assay: Growth inhibition with 25-OHC co-administration; format: cell-based, human; conditions: 10 μM 25-OHC for 1 and 2
# Experimental: 25-OHC (11) is a high-affinity ligand of OSBP1 and ORP4L that is not cytotoxic at concentrations up to 10 μM. Example 1 established that the ORPphilins compete with 25-OHC for binding to OSBP1 and ORP4L (FIG. 2D,E). Therefore, if OSBP1 and ORP4L mediate the biological activities of these compounds, co-administration of sub-lethal doses of 25-OHC with the ORPphilins should inhibit binding of the ORPphilins to OSBP1 and ORP4L, thereby desensitizing cells to the cytotoxic effects of the ORPphilins.
# [3] = HCT-116, 48 h, read-out: GI50 (nM) 48 h p21^+/+
# [4] = competition with 20 nM [3H]-25-OHC, HEK-293T S100 lysate, 4° C., 16 h
Compound,Ki (OSBP1-myc-his),"GI50 [1, 3]",GI50 (HCT-116 p21^−/− cells),GI50 (A549 cells),Ki (ORP4L-myc-his),also measured
CC(=O)OC1C(O[C@H]2C[C@H]3[C@@H]4CC=C5C[C@@H](O)CC[C@]5(C)C4CC[C@]3(C)[C@@]2(O)[C@H](C)C(=O)CCC(C)C)OCC(O)C1OC1OCC(O)C(O)C1O (stereo partly drawn) [Compound 7],63 ± 12 nM,120 ± 40 nM,17 ± 2 nM,41 ± 25 nM,120 ± 31 nM,–
C=CCOC(=O)NCc1ccc(CNC(=O)O[C@H]2CC[C@@]3(C)C(=CC[C@@H]4C3CC[C@@]3(C)[C@H]4C[C@H](OC4OCC(O)C(OC5OCC(O)C(O)C5O)C4O)[C@]3(O)[C@H](C)C(=O)CCC(C)C)C2)cc1 (stereo partly drawn) [Compound 20],–,6500 ± 3600 nM,550 ± 300 nM,–,–,–
CC(C)CCC(=O)[C@@H](C)[C@@]1(O)[C@@H](OC2OCC(O)C(OC3OCC(O)C(O)C3O)C2O)C[C@H]2[C@@H]3CC=C4C[C@@H](O)CC[C@]4(C)C3CC[C@@]21C (stereo partly drawn) [Compound 8],170 ± 7 nM,1400 ± 400 nM,220 ± 60 nM,570 ± 250 nM,760 ± 200 nM,–
CC(C)C[C@@H](C=O)NC(=O)[C@H](CC(C)C)NC(=O)[C@H](CC(C)C)NC(=O)OCc1ccccc1 [MG-132] (Cbz-Leu-Leu-Leu-aldehyde),–,–,–,–,–,"block of OSBP1 degradation by 1 and 2 [2]: completely blocked; effect on OSBP1 levels, compound alone [2]: did not affect"
C=CCOC(=O)NCCCCCCNC(=O)O[C@H]1CC[C@@]2(C)C(=CC[C@@H]3C2CC[C@@]2(C)[C@H]3C[C@H](OC3OCC(O)C(OC4OCC(O)C(O)C4O)C3O)[C@]2(O)[C@H](C)C(=O)CCC(C)C)C1 (stereo partly drawn) [Compound 104],–,> 2700 nM,525 ± 4 nM,–,–,–
C[C@H]1CCC/C=C/[C@@H]2C[C@H](O)C[C@H]2[C@H](O)/C=C/C(=O)O1 [brefeldin A],–,–,–,–,–,effect of 25-OHC co-administration on the antiproliferative activity (HCT-116 cells): did not affect
C=CCOC(=O)NCCCCCCNC(=O)O[C@H]1CC[C@@]2(C)C(=CC[C@@H]3C2CC[C@@]2(C)[C@H]3C[C@H](OC3OCC(O)C(OC4OCC(O)C(O)C4OC(=O)c4ccc(OC)cc4)C3OC(C)=O)[C@]2(O)[C@H](C)C(=O)CCC(C)C)C1 (stereo partly drawn) [Compound 103],–,172 ± 2 nM,138 ± 16 nM,–,–,–
C=CCOC(=O)NCc1ccc(CNC(=O)O[C@H]2CC[C@@]3(C)C(=CC[C@@H]4C3CC[C@@]3(C)[C@H]4C[C@H](OC4OCC(O)C(OC5OCC(O)C(O)C5OC(=O)c5ccc(OC)cc5)C4OC(C)=O)[C@]3(O)[C@H](C)C(=O)CCC(C)C)C2)cc1 (stereo partly drawn) [Compound 106],–,91 ± 10 nM,5 ± 3 nM,–,–,–
CC(=O)N[C@@H](CSC(=O)[C@]1([C@@H](O)C(C)C)NC(=O)[C@H](C)[C@@H]1O)C(=O)O [lactacystin],–,–,–,–,–,"block of OSBP1 degradation by 1 and 2 [2]: completely blocked; effect on OSBP1 levels, compound alone [2]: did not affect"
C=CCOC(=O)NCc1ccc(CNC(=O)OC2C(O)COC(OC3C(O)COC(O[C@H]4C[C@H]5[C@@H]6CC=C7C[C@@H](O)CC[C@]7(C)C6CC[C@]5(C)[C@@]4(O)[C@H](C)C(=O)CCC(C)C)C3OC(C)=O)C2OC(=O)c2ccc(OC)cc2)cc1 (stereo partly drawn) [Compound 6a],18 ± 5 nM,0.6 ± 0.13 nM,0.08 ± 0.02 nM,0.1 ± 0.04 nM,43 ± 9 nM,antiproliferative potency relative to 2 [1]: maintained the antiproliferative potency of 2; p21−/− selectivity of growth inhibition (HCT-116 p21−/− versus wt) (HCT-116 p21^−/− cells; 48 h): commensurate with that of 2
"COc1ccc(C(=O)OC2C(OC3C(O)COC(O[C@H]4C[C@H]5[C@@H]6CC=C7C[C@@H](O[Si](C)(C)C(C)(C)C)CC[C@]7(C)C6CC[C@]5(C)[C@@]4(O)[C@H](C)C(=O)CCC(C)C)C3OC(C)=O)OCC(O)C2O)cc1 (stereo partly drawn) [Compound 108, 3-(tert-Butyldimethylsilyl)-OSW-1]",–,2300 ± 200 nM,720 ± 90 nM,1600 ± 500 nM,–,"[^3H]-25-OHC K1 (nM) OSBP1-myc-his (OSBP1-myc-his; [4]): None detected; competition with [3H]-25-OHC for binding to OSBP1 (OSBP1-myc-his; listed as 9): did not compete; also recorded: does not bind; fold less active than OSW-1 (2) in HCT-116 cells [1]: ca. 1,400 fold; GI50 ([1]; HCT-116, read-out: GI50 in HCT-116 cells): 2300 nM; fold less cytotoxic than 2 in HCT-116 p21−/− cells (HCT-116 p21^−/− cells): 2100 fold; fold less cytotoxic than 2 in A549 cells (A549 cells): 700 fold; [^3H]-25-OHC K1 (nM) ORP4L-myc-his (ORP4L-myc-his; [4]): None detected; competition with [3H]-25-OHC for binding to ORP4L (ORP4L-myc-his; listed as 9): did not compete; also recorded: does not bind"
C=CCOC(=O)NCc1ccc(CNC(=O)OC2COC(OC3C(O)COC(O[C@H]4C[C@H]5[C@@H]6CC=C7C[C@@H](O)CC[C@]7(C)C6CC[C@]5(C)[C@@]4(O)[C@H](C)C(=O)CCC(C)C)C3OC(C)=O)C(OC(=O)c3ccc(OC)cc3)C2O)cc1 (stereo partly drawn) [Compound 6c],46 ± 11 nM,17 ± 4 nM,2.2 ± 0.5 nM,2.9 ± 0.9 nM,150 ± 50 nM,–
COc1ccc(C(=O)OC2C(OC3C(O)COC(O[C@H]4C[C@H]5[C@@H]6CC=C7C[C@@H](OC(=O)NCCCCCCNC(=O)OCC8c9ccccc9-c9ccccc98)CC[C@]7(C)C6CC[C@]5(C)[C@@]4(O)[C@H](C)C(=O)CCC(C)C)C3OC(C)=O)OCC(O)C2O)cc1 (stereo partly drawn) [Compound 102],–,85 nM,97 nM,–,–,–
